Counter-ions that a name gives are not always drawn.

The test system of test [1] is CDKN1A (p21) and DDIT3 (CHOP) genes. The experiment in a line: qPCR of CDKN1A (p21) and DDIT3 (CHOP) mRNA in A549 cells. It counts as cell-based, human. To be noted: doxorubicin 1 μM, T12 50 μM, 24 h. On the procedure:
FIG. 3. T12 enhances doxorubicin-induced expression of CDKN1A (p21) and DDIT3 (CHOP) genes in A549 cells. Cells were treated with doxorubicin (1 μM) and/or T12 (50 μM) for 24 h. Total RNA was isolated, reverse-transcribed, and CDKN1A (p21) and DDIT3 (CHOP) mRNA levels assessed by qPCR using TaqMan™ commercial probes and primers. Results are expressed as relative quantity (RQ) respect to untreated cells. A representative assay is shown.
Total RNA from cell samples was extracted using Ilustra RNAspin™ Mini (Ge Healthcare) according to the manufacturer's instructions. One μg of total RNA from each sample was converted to cDNA (RT) using the High Capacity cDNA Reverse Transcription Kit (Applied Biosystems). For Real-Time PCR (qPCR), 1.5 μl of cDNA was mixed with TaqMan™ Gene Expression Master Mix and the specific TaqMan™ probes and primers for COL4A3BP/GPBP, DDIT3/CHOP, CDKN1A/p21, PROM1/CD133, NANOG, MMP10 and HPRT1, all from Applied Biosystems. Hypoxanthine-guanine phosphoribosyltransferase (HPRT1) primer was used as endogenous control. qPCR was performed on a StepOnePlus™ Real-Time PCR system (Applied Biosystems) according to manufacturer's recommendations. The relative levels of mRNAs were calculated with the ΔΔCt method using untreated samples as reference (the comparative Ct method).

Test [2] relates to cell cycle-related genes in A549 cells. Nature of the test: Cell Cycle RT2 Profiler PCR Array in A549 cells. The format is cell-based, human. To be noted: doxorubicin 1 μM or T12 50 μM, 24 h. Here is the method:
FIG. 6. T12 and doxorubicin activate cell cycle-related genes in a similar fashion. A549 cells were treated doxorubicin (1 μM) or T12 (50 μM) for 24 h. Total RNA was purified, reverse-transcribed and subjected to Cell Cycle RT^2 Profiler PCR Array. A, shown are logarithmic scatter plots of relative mRNA levels of treated vs untreated cells. […] B, shown are bar plots of the relative expression (RQ) of the over-expressed genes indicated in A. Results are shown in fold expression respect to untreated cells.
RNA was purified from cells using the Ilustra RNAspin Mini (GE Healthcare) and the cDNA was prepared using RT^2 First Strand™ cDNA kit (Qiagen). The cDNA from treated or untreated cells was used to screen the Cell Cycle RT^2 Profiler™ PCR Array for human (PAHS-020Z, Qiagen), following manufacturer's procedures (Qiagen). qPCR was performed using RT^2 SYBR® Green ROX™ qPCR Mastermix (Qiagen) and the StepOnePlus™ Real-Time PCR System (Applied Biosystems). qPCR data were analyzed using manufacturer software.

Test [3] deals with A549 cells. The experiment in a line: Migration assay in modified Boyden chambers. It counts as cell-based, human. To be noted: 16 h. Here is the method: FIG. 8. T12 inhibits cancer cell migration. A modified Boyden chamber was used to measure migration as described in Methods and Experimental Design. Doxorubicin was used at 1 μM and T12 at 50 μM.
Migration assays were performed using modified Boyden chambers (Transwell inserts, 6.5 mm diameter; Corning). Inserts containing polycarbonate membranes with 8 μm pores were placed into the lower chambers containing 400 μl media (DMEM:F-12 supplemented with 10% FBS, 1% penicillin-streptomycin and 2 mM glutamine). Serum-starved A549 cells were removed from culture dishes with Hanks' balanced salt solution containing 0.5% trypsin and 0.2% EDTA (Sigma), washed and suspended in media without serum (DMEM:F-12, 1% penicillin-streptomycin and 2 mM glutamine) at 10^6 cells/mL. Two-hundred fifty thousand (250,000) cells in 250 μL media without serum were added to the top of each migration chamber and allowed to migrate to the underside of the porous membrane for 16 h. T12 and doxorubicin were present in the media of both top and bottom compartments throughout the assay. […] The detached cells were labeled with Calcein AM Fluorescent Dye (4 μg/ml) for 90 min at 37° C. and the fluorescence was measured at 494/517 nm (Abs/Em).

Test [4] relates to A549 xenografts. The experiment in a line: Mouse xenograft study with A549 tumors. It counts as in vivo, nude mice. To be noted: for tumor growth, single compound: doxorubicin 2.5 mg/kg per week i.p. or T12 20 mg/kg per day in drinking water, three weeks. On the procedure:
FIG. 11. T12 and doxorubicin are synergistic arresting growth of A549-based tumors. Nude mice bearing A549 xenografts were treated with the indicated compounds as indicated in Methods and Experimental Design. Indicated are the tumor size at the indicated times. […] FIG. 12. T12 and doxorubicin are synergistic necrotizing A549-based tumors. Tumor samples from mice used in FIG. 11 were fixed in formalin, paraffin-embedded, subjected to Masson's trichrome staining and observed by optical microscopy. Necrotic areas are indicated with asterisks. Shown are representative images. FIG. 13. […] Ten-week old nude mice (NMRi-Foxn1^nu/Foxn1^nu) (Janvier) were used for xenograft studies. Three-million A549 cells were suspended in 100 μL of culture medium, mixed with 200 μL Matrigel (BD) and subcutaneously injected on the flank of individual mouse (n=40). Tumor size was periodically measured with a digital caliper and volumes were calculated with the formula […]. […] After three weeks mice were sacrificed, tumor xenografts excised and either fixed with formalin and paraffin-embedded or frozen and RNA extracted. Sections of paraffin-embedded tumor samples were subjected to hematoxylin and eosin and Masson's trichrome standard stainings. Frozen tumor samples were ground with a mortar in liquid nitrogen and total RNA extracted as above indicated.

Test [5] deals with A549 cells. Nature of the test: T12 LC50 in A549 cells cultured without serum to expand the CSC/SP compartment. It counts as cell-based. To be noted: Homo sapiens. Here is the method:
FIG. 16. GPBP is over-expressed in A549 cells grown in B-ALI media that allows CSC/SP expansion. Bars represent the relative expression of the indicated genes in A549 cells grown with the indicated culture medium during the indicated times. A549 cells grown in DMEM: Ham's F12 medium supplemented with 2 mM L-glutamine and 10% fetal bovine serum (day 0) were used as reference.
Chemoresistance is widely accepted to depend on epigenetic changes occurring at the CSC/SP compartment (Alberts et al. 2007). Accordingly GPBP-mediated doxorubicin resistance is expected to occur on CSC/SP compartment. To test this we cultured A549 cells in the absence of serum using culture conditions known to expand CSC/SP compartment.

The mark [6] stands for this setting: 2.5 mg/kg/week doxorubicin and 20 mg/kg/day T12, three weeks.

What is called CC50 is the concentration that lowers cell viability or growth by half. `COc1ccc(-c2ccc(-c3cccc(C)c3)c(C)c2)c(CCC(=O)O)c1` [T12, 3-[4″-methoxy-3,2′-dimethyl-(1,1′;4′,1″)terphenyl-2″-yl] propionic acid]: the “induction of CDKN1A (p21) and DDIT3 (CHOP) expression together with doxorubicin” value in test [1] is on record as “synergistic”. The “expression of CDKN1A (p21), GADD45A, MDM2 and SERTAD1” value in test [2] is “up-regulated”. Moreover, in test [3] (T12 50 μM plus doxorubicin 1 μM), the “cell migration of A549 cells, T12 with additional doxorubicin” value was “virtually arrested”. Also, the “cell migration of A549 cells” value in test [3] (T12 50 μM) is reported as “sharply inhibited”. Besides, the “matrix metalloproteinase 10 (MMP-10) expression in tumors, combined treatment” value in test [4] (2.5 mg/kg/week doxorubicin and 20 mg/kg/day T12, qPCR) was “lower levels”. In test [4] (setting [6]), the “necrotic areas within the tumors, combined treatment” value is reported as “more extensive” and the “tumor growth, combined administration” value is listed as “tumor arrest”. Also, the “tumor growth, single compound” value in test [4] was “did not impaired tumor growth”. The compound further gave a CC50 in test [5] (A549, A549 comparison culture (CSC/SP not expanded)) of 125 µM. The compound further showed a CC50 in test [5] (A549, A549 cultured in the absence of serum, expanded CSC/SP compartment) of 15 µM.

`COc1cccc2c1C(=O)c1c(O)c3c(c(O)c1C2=O)C[C@@](O)(C(=O)CO)C[C@@H]3O[C@H]1C[C@H](N)[C@H](O)[C@H](C)O1` [doxorubicin, doxorubicin hydrochloride, reference compound]: the “expression of CDKN1A (p21), GADD45A, MDM2 and SERTAD1” value in test [2] is “up-regulated”. Further, the “tumor growth, single compound” value in test [4] was “did not impaired tumor growth”.

The values are drawn from patent US9066938B2, “GPBP-1 inhibition and its therapeutic use” (Fibrostatin S.L., priority 2012, dated 2015).
